Assay results taken from patent US10441562B2, “Aromatic farnesyl compound and application thereof” (INSTITUTE OF MICROBIOLOGY, CHINESE ACADEMY OF SCIENCES, priority 2015, dated 2019).
Marks after values point to notes of the source that are not given here.

Key:
[1] = test system: hyperglycemia mice induced by alloxan; test: blood sugar of hyperglycemia mice induced by alloxan; format: in vivo, Kunming species mice; conditions: for effect on blood sugar level of hyperglycemic mice (in words): 50 mg/kg
Experimental: Blood glucose determination kit (batch number 20140403) is purchased from Nanjing Jiancheng Bioengineering Institute. Methods: after being acclimatized for 1 week, 10 randomly selected Kunming species male mice of SPF level of 20±2 g are used as control group, while the other 50 mice are given alloxan to make model by intraperitoneal injection according to body weight 220 mg/kg.

[2] = test system: Wister rats fed with choline deficient diet; test: non-alcohol fatty liver disease in rats fed choline deficient (high-fat) diet; format: in vivo; conditions: for ALT / HDL-C / LDL-C / Liver index / TC / TG: 4 weeks
Experimental: Serum total cholesterol kit (batch number 20131112), low density lipoprotein LDL-C kit (batch number 20140114), high density lipoprotein HDL-C kit (batch number 20140413), triglyceride TG kit (batch number 20131226) and glutamic-pyruvic transaminase ALT kit (batch number 20131006) are purchased from Nanjing Jiancheng Bioengineering Institute.
Methods: male SPF level Wister rats are randomly divided into groups: (1) normal group (2) model control group (3) which is administered by compound S13 with the dose of 10 mg/kg (4) which is administered by compound S13 with the dose of 20 mg/kg (5) which is administered by compound S28 with the dose of 10 mg/kg […] which is administered by compound S28 with the dose of 20 mg/kg. Each group has 10 mice. The mice of normal group are fed with standard diet, the mice of other groups are fed with choline deficient diet (high-fat diet). Food intake and body weight are detected. Feeding with choline deficient diet are considered as a frequently-used hepatic adipose infiltration modeling method of rodent, which can induce the denaturation of hepatocyte, hepatitis and liver injury, at the same time the increase of blood lipid level can induce the insulin resistance.
After being fed with high-fat diet for 8 weeks, the mice of treated group are given drugs for 4 weeks successively. Model group and normal group are given with equal amounts of 0.5% CMC-Na. After administration of medicine for 4 weeks, the rats are executed under anesthesia, and then hepatic tissue and blood are collected.
2) Contents of serum total cholesterol, low density lipoprotein, high density lipoprotein and triglyceride.
3) Contents of glutamic-pyruvic transaminase.

[3] = acute toxicity test of mice; conditions: Kunming, mouse, in vivo, po, 5 g/kg
Experimental: (§1) Materials: 20 Kunming species mice of 6-8 weeks of 20-22 g are purchased from Beijing Vital River Laboratory Animal Technology Co., Ltd.,
(§2) Accurately weigh the 2 compounds S13 and S28, and then add 0.5% CMC-Na to make the solution of 0.2 g/ml.
(§3) After being acclimatized for 3-5 days, the mice are fasted at 18:00 in the day before the experiment, free drinking. The mice are randomly divided into groups of 10 animals in each and given with medicine by intragastric administration, and 0.25 ml of drugs is given to every 10 g weight of mice, i.e. dose 5 g/kg. Mice of control group are given with 0.5% CMC-Na by intragastric administration, and 0.25 ml of solution are given to every 10 g weight of mice.
(§4) After administration, observe the general status of mice, such as appearance, behavior, response to stimulus, secretion and excretion, and record the time when abnormal phenomena happen. If death occurred, record time and observe the abnormal phenomena by autopsy.

Kunming species mice = test: acute toxicity test of mice
Experimental: as §1, §2, §3, §4

[4] = body weight of hyperglycemia KK-A^y mice; format: in vivo
Experimental: Materials: accurately weigh the 2 compounds S13 and S28 discussed in example 2, and then add 0.5% CMC-Na to make the solution of 5 mg/ml used for activity test. KK-A^y mice are purchased from Chinese Academy of Medical Sciences & Peking Union Medical College Institute of Animal Studies. Experiments are carried out after adapting to the environment (T=20-24° C., constant humidity: 50-60%, 12 hours light exposure (8:00-20:00), soundproof, free feeding and drinking) for 1 week. Glucometer is purchased from Roche.
Methods: 10 male C57 mice of 6-8 weeks of 20-22 g are used as normal control group (1). Detect the fasting glucose of male KK-A^y mice, which are 6-8 weeks with the weight of 28-32 g, and divide them into different groups according to the blood sugar level and body weight: (2) model control group, (3) which is administered by compound S13 with the dose of 1 mg/kg, (4) which is administered by compound S13 with the dose of 5 mg/kg, (5) which is administered by compound S13 with the dose of 10 mg/kg, (6) which is administered by compound S13 with the dose of 20 mg/kg, (7) which is administered by compound S28 with the dose of 1 mg/kg, (8) which is administered by compound S28 with the dose of 5 mg/kg, (9) which is administered by compound S28 with the dose of 10 mg/kg, (10) which is administered by compound S28 with the dose of 20 mg/kg, (11) which is administered by metformin with the dose of 8 g/kg, (12) which is administered by compound S13 with the dose of 2.5 mg/kg and metformin with the dose of 4 g/kg, (13) which is administered by compound S13 with the dose of 5 mg/kg and metformin with the dose of 4 g/kg, (14) which is administered by compound S28 with the dose of 2.5 mg/kg and metformin with the dose of […], (15) which is administered by compound S28 with the dose of 5 mg/kg and metformin with the dose of […]. Each group has 8 mice, and is administrated successively for 3 weeks. Model control group is given with equal amounts of 0.5% CMC-Na.
2) Effects on body weight and blood sugar: the body weight of mice are recorded at the 2th, 5th, 8th, 11th, 14th, 17th, 20th day after administration, and blood is collected from tip of tail to detect the blood sugar level (see table 10).

[5] = 2st day, 20 mg/kg, groups 6, 10
[6] = 5st day, 20 mg/kg, groups 6, 10
[7] = 8st day, 20 mg/kg, groups 6, 10
[8] = 11st day, 10 mg/kg, groups 5, 9
[9] = 11st day, 20 mg/kg, groups 6, 10
[10] = 14st day, 10 mg/kg, groups 5, 9
[11] = 14st day, 20 mg/kg, groups 6, 10
[12] = 17st day, 10 mg/kg, groups 5, 9
[13] = 17st day, 20 mg/kg, groups 6, 10
[14] = 20st day, 10 mg/kg, groups 5, 9
[15] = 20st day, 20 mg/kg, groups 6, 10

SMILES: CC(C)=CCC/C(C)=C/CCC1=C[C@@H](c2cc(O)ccc2O)OC1=O [S28, (S,E)-5-(2,5-dihydroxyphenyl)-3-(4,8-dimethylnona-3,7-dien-1-yl)furan-2(5H)-one]
- effect on blood sugar level of hyperglycemic mice (in words) ([1]; 10 days): significantly decrease the blood sugar level of hyperglycemic mice
- effect on liver index of fatty liver rats (in words) [2]: effectively decrease the liver index of fatty liver rats
- ALT ([2]; 10 mg/kg): 45.97** U/L
- HDL-C ([2]; 10 mg/kg): 0.61** mmol/L
- LDL-C ([2]; 10 mg/kg): 0.79** mmol/L
- Liver index ([2]; 10 mg/kg): 2.91**
- TC ([2]; 10 mg/kg): 1.95** mmol/L
- TG ([2]; 10 mg/kg): 1.38** mmol/L
- ALT ([2]; 20 mg/kg): 41.08** U/L
- HDL-C ([2]; 20 mg/kg): 0.68** mmol/L
- LDL-C ([2]; 20 mg/kg): 0.70** mmol/L
- Liver index ([2]; 20 mg/kg): 2.58**
- TC ([2]; 20 mg/kg): 1.36** mmol/L
- TG ([2]; 20 mg/kg): 1.15** mmol/L
- LD50 [3]: > 5000 mg/kg
- abnormal phenomena by autopsy (Kunming species mice; mouse, in vivo): no obvious abnormal phenomena are found by autopsy
- body weight of mice after administration (Kunming species mice; mouse, in vivo): drop slightly
- effect on body weight (in words) [4]: litter effect on body weight
- Body weight ([4]; 2st day, 1 mg/kg, groups 3, 7): 30.1 g
- Body weight ([4]; 2st day, 5 mg/kg, groups 4, 8): 30.3 g
- Body weight ([4]; 2st day, 10 mg/kg, groups 5, 9): 30.3 g
- Body weight [4, 5]: 30.4 g
- Body weight ([4]; 5st day, 1 mg/kg, groups 3, 7): 30.23 g
- Body weight ([4]; 5st day, 5 mg/kg, groups 4, 8): 30.43 g
- Body weight ([4]; 5st day, 10 mg/kg, groups 5, 9): 30.51 g
- Body weight [4, 6]: 30.36 g
- Body weight ([4]; 8st day, 1 mg/kg, groups 3, 7): 30.6 g
- Body weight ([4]; 8st day, 5 mg/kg, groups 4, 8): 30.8 g
- Body weight ([4]; 8st day, 10 mg/kg, groups 5, 9): 30.4 g
- Body weight [4, 7]: 30.2 g
- Body weight ([4]; 11st day, 1 mg/kg, groups 3, 7): 30.8 g
- Body weight ([4]; 11st day, 5 mg/kg, groups 4, 8): 31.3 g
- Body weight [4, 8]: 31.4 g
- Body weight [4, 9]: 30.5 g
- Body weight ([4]; 14st day, 1 mg/kg, groups 3, 7): 31.25 g
- Body weight ([4]; 14st day, 5 mg/kg, groups 4, 8): 31.76 g
- Body weight [4, 10]: 32.56 g
- Body weight [4, 11]: 30.4 g
- Body weight ([4]; 17st day, 1 mg/kg, groups 3, 7): 31.4 g
- Body weight ([4]; 17st day, 5 mg/kg, groups 4, 8): 31.5 g
- Body weight [4, 12]: 32.6 g
- Body weight [4, 13]: 30.7 g
- Body weight ([4]; 20st day, 1 mg/kg, groups 3, 7): 32.1 g
- Body weight ([4]; 20st day, 5 mg/kg, groups 4, 8): 31.3 g
- Body weight [4, 14]: 32.2 g
- Body weight [4, 15]: 30.2 g

SMILES: CC(C)=CCC/C(C)=C/CCC1=C[C@H](c2cc(O)ccc2O)OC1=O [S13, (R,E)-5-(2,5-dihydroxyphenyl)-3-(4,8-dimethylnona-3,7-dien-1-yl)furan-2(5H)-one]
- blood sugar after administration ([1]; 50 mg/kg intragastric, 10 days, fasted 10 hours): 5.11** mmol/L
- effect on blood sugar level of hyperglycemic mice (in words) ([1]; 10 days): significantly decrease the blood sugar level of hyperglycemic mice
- blood sugar before administration ([1]; before administration): 14.50 mmol/L
- effect on liver index of fatty liver rats (in words) [2]: effectively decrease the liver index of fatty liver rats
- ALT ([2]; 10 mg/kg): 48.24** U/L
- HDL-C ([2]; 10 mg/kg): 0.57* mmol/L
- LDL-C ([2]; 10 mg/kg): 0.83* mmol/L
- Liver index ([2]; 10 mg/kg): 2.85**
- TC ([2]; 10 mg/kg): 1.81** mmol/L
- TG ([2]; 10 mg/kg): 1.21** mmol/L
- ALT ([2]; 20 mg/kg): 33.56** U/L
- HDL-C ([2]; 20 mg/kg): 0.72** mmol/L
- LDL-C ([2]; 20 mg/kg): 0.71** mmol/L
- Liver index ([2]; 20 mg/kg): 2.47**
- TC ([2]; 20 mg/kg): 1.37** mmol/L
- TG ([2]; 20 mg/kg): 1.08** mmol/L
- LD50 [3]: > 5000 mg/kg
- abnormal phenomena by autopsy (Kunming species mice; mice, intragastric administration, dose 5 g/kg): no obvious abnormal phenomena are found by autopsy
- effect on body weight (in words) [4]: litter effect on body weight
- Body weight ([4]; 2st day, 1 mg/kg, groups 3, 7): 30.6 g
- Body weight ([4]; 2st day, 5 mg/kg, groups 4, 8): 30.7 g
- Body weight ([4]; 2st day, 10 mg/kg, groups 5, 9): 30.3 g
- Body weight [4, 5]: 30.5 g
- Body weight ([4]; 5st day, 1 mg/kg, groups 3, 7): 30.8 g
- Body weight ([4]; 5st day, 5 mg/kg, groups 4, 8): 30.8 g
- Body weight ([4]; 5st day, 10 mg/kg, groups 5, 9): 30.2 g
- Body weight [4, 6]: 30.3 g
- Body weight ([4]; 8st day, 1 mg/kg, groups 3, 7): 30.5 g
- Body weight ([4]; 8st day, 5 mg/kg, groups 4, 8): 30.9 g
- Body weight ([4]; 8st day, 10 mg/kg, groups 5, 9): 30.3 g
- Body weight [4, 7]: 30.2 g
- Body weight ([4]; 11st day, 1 mg/kg, groups 3, 7): 30.5 g
- Body weight ([4]; 11st day, 5 mg/kg, groups 4, 8): 31.2 g
- Body weight [4, 8]: 31.5 g
- Body weight [4, 9]: 30.1 g
- Body weight ([4]; 14st day, 1 mg/kg, groups 3, 7): 31.2 g
- Body weight ([4]; 14st day, 5 mg/kg, groups 4, 8): 31.5 g
- Body weight [4, 10]: 32.5 g
- Body weight [4, 11]: 30.4 g
- Body weight ([4]; 17st day, 1 mg/kg, groups 3, 7): 31.8 g
- Body weight ([4]; 17st day, 5 mg/kg, groups 4, 8): 31.5 g
- Body weight [4, 12]: 32.1 g
- Body weight [4, 13]: 30 g
- Body weight ([4]; 20st day, 1 mg/kg, groups 3, 7): 32.1 g
- Body weight ([4]; 20st day, 5 mg/kg, groups 4, 8): 31.6 g
- Body weight [4, 14]: 32.5 g
- Body weight [4, 15]: 30.1 g
